Test results as given in PMC9181543, “Lysosomal Exocytosis of Olivacine on the Way to Explain Drug Resistance in Cancer Cells” (International Journal of Molecular Sciences, 2022).

Tests used:
A549 cells [1] = assay: Proton pump blocking test (omeprazole) for lysosomal exocytosis; type: cell-based, human; conditions: 200 µM for 1 h before test compounds
Method: To assess whether the exocytosis of olivacine and ellipticine from cancer cells is lysosomal, a proton pump blocking test was performed. Omeprazole was added into A549 cells at a concentration of 200 µM for 1 h. The cell culture was then washed twice with PBS, and the cells were treated with tested compounds. The cell culture was assessed using an Evos FL microscope. The lysosomes were stained using LysoTracker™ Deep Red kit (L12492; Invitrogen). Cultured cells were evaluated using an Evos FL microscope, taking photos every 15 min. After treatment with olivacine or olivacine and omeprazole, analysis of mean cell fluorescence was performed from five independent replicates. In addition, 14 pictures were taken from each replicate, and 100 cells were analyzed by photomicrography using the ImageJ platform.

NHDF cells [2] = assay: MTT assay (mitochondrial activity), NHDF; type: cell-based; conditions: Homo sapiens, NHDF normal cells
Method: (§1) The anticancer activity of tested compounds was assessed on five human cell lines selected from the panel of tumor cell lines recommended by the National Cancer Institute: A495 (lung carcinoma), CCRF/CEM (acute lymphoblastic leukemia), LoVo and LoVo/DX (two types of colorectal: non-resistant and resistant to doxorubicin), and MCF-7 (breast adenocarcinoma). In addition, the NHDF cell line (normal human dermal fibroblasts) was used to estimate cytotoxicity to noncancer cells. The A549, CCRF/CEM, LoVo, LoVo/DX, and MCF-7 cells were obtained from ECACC, and NHDF cells from LONZA, Belgium. The A549 and MCF-7 cells were grown in EMEM medium, CCRF/CEM cells in RPMI-1640, LoVo and LoVo/DX cells in DMEM/F-12, and NHDF cells in DMEM without phenol red. The cells were seeded in […] in the biological assay, as recommended by the National Cancer Institute. All culture media were supplemented with L-glutamine, penicillin, streptomycin, and 10% fetal bovine serum (FBS). Cells were incubated at 37 °C and 5% CO2. An assessment of the mitochondrial cell activity after applying tested compounds was carried out using the test MTT assay, recommended in the ISO 10993-5:2009 standard. As in the SRB assay, the cells were exposed to tested compounds after 24 h of initial incubation in 96-well plates. The MTT solution (1 mg/mL) was added to each well, and cells were incubated for 2 h. Finally, the supernatant was removed, and the formazan crystals were dissolved in isopropanol. After 30 min, absorbance at 570 nm in Victor2 microplate reader (PerkinElmer). Cell viability was determined as the IC50 ratio, i.e., the concentration of the compound in which the viability was reduced by half compared with the control.

A549 cells [3] = assay: MTT assay (mitochondrial activity), A549; type: cell-based; conditions: Homo sapiens
Method: as §1

NHDF cells [4] = assay: SRB assay (total protein content), NHDF; type: cell-based; conditions: Homo sapiens, NHDF normal cells, 48 h incubation
Method: (§2) The anticancer activity of tested compounds was assessed on five human cell lines selected from the panel of tumor cell lines recommended by the National Cancer Institute: A495 (lung carcinoma), CCRF/CEM (acute lymphoblastic leukemia), LoVo and LoVo/DX (two types of colorectal: non-resistant and resistant to doxorubicin), and MCF-7 (breast adenocarcinoma). In addition, the NHDF cell line (normal human dermal fibroblasts) was used to estimate cytotoxicity to noncancer cells. The A549, CCRF/CEM, LoVo, LoVo/DX, and MCF-7 cells were obtained from ECACC, and NHDF cells from LONZA, Belgium. The A549 and MCF-7 cells were grown in EMEM medium, CCRF/CEM cells in RPMI-1640, LoVo and LoVo/DX cells in DMEM/F-12, and NHDF cells in DMEM without phenol red. The cells were seeded in […] in the biological assay, as recommended by the National Cancer Institute. All culture media were supplemented with L-glutamine, penicillin, streptomycin, and 10% fetal bovine serum (FBS). Cells were incubated at 37 °C and 5% CO2. One of the most popular in vitro tests to evaluate the activity of compounds with potential antitumor activity is the SRB assay. The sulforhodamine B dye is used, which binds to the protein at the appropriate pH. The assay allows for assessing cell mass and, indirectly, their proliferation. The advantage of the assay is that it measures cellular protein content and not the activity of any enzymes. The SRB assay was carried out according to the National Cancer Institute procedure. Cells were incubated in a culture medium for 24 h in 96-well plates. After 24 h, the control plate for each cell line was fixed with TCA to evaluate cell culture before treatment with tested compounds. […] Cell cultures were then fixed by adding 50% TCA at 4 °C for 1 h. After removing the supernatant, the plates were washed with water and dried. […] Growth inhibition was calculated following the NCI guidelines and expressed as the GI50 ratio, i.e., the concentration of the compound in which the amount of protein was reduced by half compared with the control.

MCF-7 cells [5] = assay: MTT assay (mitochondrial activity), MCF-7; type: cell-based; conditions: Homo sapiens, MCF7
Method: as §1

CCRF/CEM cells [6] = assay: MTT assay (mitochondrial activity), CCRF/CEM; type: cell-based; conditions: Homo sapiens
Method: as §1

MCF-7 cells [7] = assay: SRB assay (total protein content), MCF-7; type: cell-based; conditions: Homo sapiens, MCF7, 48 h incubation
Method: as §2

LoVo/DX cells [8] = assay: SRB assay (total protein content), LoVo/DX; type: cell-based; conditions: Homo sapiens, LoVo/DX cells (doxorubicin-resistant), 48 h incubation
Method: as §2

LoVo/DX cells [9] = assay: MTT assay (mitochondrial activity), LoVo/DX; type: cell-based; conditions: Homo sapiens, LoVo/DX cells (doxorubicin-resistant)
Method: as §1

CCRF/CEM cells [10] = assay: SRB assay (total protein content), CCRF/CEM; type: cell-based; conditions: Homo sapiens, 48 h incubation
Method: as §2

LoVo cells [11] = assay: MTT assay (mitochondrial activity), LoVo; type: cell-based; conditions: Homo sapiens
Method: as §1

LoVo cells [12] = assay: SRB assay (total protein content), LoVo; type: cell-based; conditions: Homo sapiens, 48 h incubation
Method: as §2

Row | SMILES | effect on exocytosis of olivacine and ellipticine (A549 cells [1]) | IC50 (NHDF cells [2]) [µM] | IC50 (A549 cells [3]) [µM] | GI50 (NHDF cells [4]) [µM] | IC50 (MCF-7 cells [5]) [µM] | IC50 (CCRF/CEM cells [6]) [nM] | GI50 (MCF-7 cells [7]) [nM] | GI50 (LoVo/DX cells [8]) [µM] | IC50 (LoVo/DX cells [9]) [µM] | GI50 (CCRF/CEM cells [10]) [nM] | IC50 (LoVo cells [11]) [µM] | GI50 (LoVo cells [12]) [nM]
1 | COc1ccc2[nH]c([S+]([O-])Cc3ncc(C)c(OC)c3C)nc2c1 (stereo not drawn) [Omeprazole] | protect against exocytosis |  |  |  |  |  |  |  |  |  |  | 
2 | COc1cccc2c1C(=O)c1c(O)c3c(c(O)c1C2=O)C[C@@](O)(C(=O)CO)C[C@@H]3O[C@H]1C[C@H](N)[C@H](O)[C@H](C)O1 [Doxorubicin] |  | 18.2 ± 4.46 | 13.8 ± 1.03 | 13.7 ± 5.29 | 4.33 ± 0.55 | 1030 ± 20 | 1440 ± 230 | 14.1 ± 3.42 | 86.4 ± 25.4 | 740 ± 20 | 10.2 ± 1.27 | 1620 ± 450
